Test results from patent US20230084899A1, “COMBINATION OF AN AHR-INHIBITOR AND AN PD1-INHIBITOR ANTIBODY AND ITS USE IN THE TREATMENT OF CANCER” (Bayer Aktiengesellschaft, priority 2019, published 2023).
Entries after “also recorded” stand apart in the source; their conditions may differ.

Experiments:
tumor cell proliferation = assay: Anti-proliferative effect of the combination (tumor cell proliferation); format: cell-based
[1] = tested on: human T cell/DC co-cultures; assay: Mixed lymphocyte reaction: IL-2 in supernatants of matured DC / T cell co-culture; format: cell-based
Experimental: Whole blood samples from healthy donors were collected and PBMCs were isolated using density gradient centrifugation for 15 min at 800×g at room temperature with Biocoll separation solution (density […]; Biochrom, #L6115). The supernatants were discarded and the PBMCs were poured into 50 ml tubes, washed with PBS without Ca^+/Mg^+, counted and resuspended in MACS separation buffer (Miltenyi Biotec). The monocytes were isolated from PBMCs using the Monocyte Isolation Kit II (Miltenyi Biotec, Cat #130-091-153) according to manufacturer's instructions. On the day of co-culture, T cells were isolated from PBMC preparations obtained from whole blood of different donors using the Pan T Cell Isolation Kit (Auto MACS Pro, Cat #130-096-535).
Monocytes were differentiated into monocyte-derived dendritic cells (moDCs) using 100 ng/ml GM-CSF (R&D Systems, Cat #215-GM) and 100 ng/ml rhIL4 (R&D Systems, Cat #204-IL) for 6 days at 37° C., 5% CO2. To produce mature DCs, moDCs were further matured for 24 h with IFNγ (R&D Systems, Cat #285-IF) and lipopolysaccharide (LPS) from Escherichia coli O127: B8 (Sigma, Cat #L4516).
For the co-culture assay, matured DCs and T cells from different donors were used. The cells were seeded in 96-well plates (Costar, Cat #3585) at 1×10^4 cells/well for matured DCs and 5×10^4 cells/well for T cells. A serial dilution of component A (3× dilution steps) in combination with anti-programmed cell death 1 antibody (as component B: aPD-1; 1 μg/ml pembrolizumab or 3 μg/ml nivolumab) or respective concentrations of hIgG4 (isotype control TPP10747, PPB11084) was added and the cells were incubated for 3 days at 37° C., 5% CO2.
IL-2 cytokine levels were measured in aliquots of supernatants using the Human IL-2 Tissue Culture kit (Meso Scale Discovery, Cat #K151AHB-4).

**Q.** What does the source list for `C[C@@H](CO)NC(=O)c1cc(-c2ccc(Cl)cc2)nn(-c2cnn(C)c2)c1=O` [6-(4-Chlorophenyl)-N-[(2S)-1-hydroxypropan-2-yl]-2-(1-methyl-1H-pyrazol-4-yl)-3-oxo-2,3-dihydropyridazine-4-carboxamide]?
**A.** inhibiting tumor cell proliferation (tumor cell proliferation; in combination with nivolumab): synergistic effects; anti-proliferative effect / inhibiting tumor cell proliferation (tumor cell proliferation; in combination with pembrolizumab): very strong synergy; also recorded: synergistic effects

**Q.** Which “T cell activity (observed by IL-2 production)” value ([1]; alone and in combination with PD1 antibodies) does the source give for `C[C@@H](CO)NC(=O)c1cc(-c2ccc(Cl)cc2)nn(-c2cnn(C)c2)c1=O` [component A, 6-(4-Chlorophenyl)-N-[(2S)-1-hydroxypropan-2-yl]-2-(1-methyl-1H-pyrazol-4-yl)-3-oxo-2,3-dihydropyridazine-4-carboxamide] here?
**A.** Its value is “enhances T cell activity”.

**Q.** And the “IL-2 production from T cells” value ([1]; component A alone (component A+hIgG4 isotype control), serial dilution, 3 days co-culture)?
**A.** Its value is “dose-dependent response”.

**Q.** And the “IL-2 levels, combination compared to aPD-1 or component A alone” value ([1]; component A serial dilution + 1 μg/ml pembrolizumab, 3 days co-culture (FIG. 1))?
**A.** Its value is “higher IL-2 levels”.

**Q.** And the “IL-2 levels, combination compared to aPD-1 or component A alone” value ([1]; component A serial dilution + 3 μg/ml nivolumab, 3 days co-culture (FIG. 2))?
**A.** The value was “higher IL-2 levels”.
